Entries after “also recorded” stand apart in the source; their conditions may differ.
What was measured:
Pkd1 V/V mouse = experiment: Dermal microemulsion delivery to Pkd1 cystic mice (ADPKD model); type: in vivo; details: dermal application as microemulsion, neonatal Pkd1 mice
Excerpt: Paxillin is abnormally expressed in cystic epithelial cells in a mouse model of ADPKD. […] For this reason, paxillin can be considered to act as a “rheostat” that can be targeted to curtail cystogenesis.
The paxillin inhibitor compound (II-4) inactivates phosphorylation at Y118 on paxillin using retinal endothelial cells. Compound (II-4) has been formulated as a microemulsion for non-invasive delivery to neonatal Pkd1 non-cystic and cystic mice and it has been observed that renal cystic disease was attenuated as measured by total kidney-to-body weight ratio.
FIG. 4: Paxillin in ADPKD kidneys. (A) Immunoblot of total paxillin in protein lysates from non-cystic Pkd1^+/+ (n=5) and cystic Pkd1^V/V (n=3) mouse kidneys at post-natal day 11 after 8 days of dermal application of compound (II-4) microemulsion solution. GAPDH was used as a loading control. Densitometry of the bands normalized to GAPDH is shown for (B) paxillin and (C) phospho-paxillin (C). * P<0.005 difference between groups.

[1] = biological target: T1, melatonin-1 receptor (MT-1) (Homo sapiens, UniProt P48039); experiment: Off-target counter screening, ExpresS Profile; type: binding; details: 10 μM
T1 construct: purchased Eurofins, Cerep Panlabs ExpresS Profile
Experimental: (§1) Counter-screen assays to determine “off-target” effects are conducted at an early stage to mitigate toxicological risk of new chemical entities. Compound (II-4) (10 μM) counter screening was conducted against a wide variety of target receptors, enzymes, and ion channels using a serum-free cell-based assay, ExpresS Profile (Eurofins, Cerep Panlabs). Inhibition >50% is considered a “positive” interaction.

[2] = biological target: T2, serotonin receptor 5-HT2B (Homo sapiens, UniProt P41595); experiment: Off-target counter screening, ExpresS Profile; type: binding; details: 10 μM
T2 construct: purchased Eurofins, Cerep Panlabs ExpresS Profile
Experimental: as §1

VLA-4 = VLA-4 protein levels by flow cytometry in UM cells; type: cell-based, human; details: UM cells after treatment
Experimental: Harvested cells were washed and counted. 1.0×10^6 cells were labeled with the following cell surface antibodies: FITC anti-CD54 (ICAM-1, clone HA58, BioLegend), PE anti-CD102 (ICAM-2, clone CBR-IC2/2, BioLegend), PE-Cy7 anti-CD49d (VLA-4, clone 9F10, BioLegend), APC anti-CD106 (VCAM-1, clone STA, BioLegend), PerCP-Cy5.5 anti-CD166 (ALCAM, clone 3A6, BioLegend), Biotin anti-CD326 (EpCAM, clone 1B7, BD Biosciences) using manufacturer's conditions. Cells were incubated in antibody cocktail for 30 minutes on ice followed by two washes with PBS/2% FBS. Second-labeling step was performed using Brilliant Violet 421 Streptavidin (bv421-SA, BioLegend) for 30 minutes on ice followed by two washes as before. […]
Next, it was investigated if reduced numbers were a consequence of a reduction in UM cells proliferation. Cell cultures in the presence or absence of compound (II-4) were analyzed by follow cytometry for cytoskeletal fragmentation and proliferation. […]
(§2) FIG. 15: The paxillin inhibitor Compound (II-4) selectively affects cellular proliferation of primary UM cells that become metastatic. […] Unlabeled cells were used to control fluorescence. […] B. Quantitation of experiment +/−SD including primary UM that becomes metastatic (Mel 270), metastatic (OMM 2.1) and primary (92.1) UM cells. *P=0.0007 and **P=0.0005. […] Quantitation of VLA-4 protein levels +/−SD from n=3. […]

CYP2D6 = biological target: T3, CYP2D6 (Homo sapiens, UniProt P10635); experiment: CYP-450 interaction study in pooled human liver microsomes, CYP2D6; type: in vitro ADME; details: 1 μM
T3 construct: from tissue; host or cells: pooled human liver microsomes
Experimental: CYP-450 interaction studies were conducted in pooled human liver microsomes (FIG. 8). CYP-450 inhibition (%) by compound (II-4) (1 μM) was compared to control inhibitors (1 μM) for the most common CYP-450 isoforms, CYP3A4, CYP2C9, CYP2D6, CYP2C19, and CYP1A2.
CYP-450 interaction studies were conducted in pooled human liver microsomes (FIG. 24). CYP-450 inhibition (%) by compound (II-4) (1 μM) was compared to control inhibitors (1 μM) for the most common CYP-450 isoforms, 3A4, 2C9, 2D6, 2C19, and 1A2.

UM tumor cells = experiment: Phalloidin (F-actin) analysis by flow cytometry in UM cells; type: cell-based, human; details: treatment for 24 hrs
Experimental: Retinal endothelial cells (REC) and UM-OMM 2.5 cells were harvested, washed and counted. 1.0×10^6 cells were fixed for 1 hr at 4° C. and permeabilized with the Intracellular Fixation and Permeabilization Buffer Kit (eBiosciences, San Diego, Calif.). Cells were washed followed by Alexa-Fluor 647 Phalloidin (MOLECULAR PROBES, Life Technologies, Carlsbad, Calif.) labeling using 1 U/μL. Cells were washed and analyzed using BD LSR II followed by analysis using FlowJo xV10.0.6 software.
Next, it was investigated if reduced numbers were a consequence of a reduction in UM cells proliferation. Cell cultures in the presence or absence of compound (II-4) were analyzed by follow cytometry for cytoskeletal fragmentation and proliferation. Uncontrolled cytoskeletal remodeling and cell proliferation are considered hallmarks of tumor growth and metastasis. […]
as §2

T3 sequence (P10635 whole entry): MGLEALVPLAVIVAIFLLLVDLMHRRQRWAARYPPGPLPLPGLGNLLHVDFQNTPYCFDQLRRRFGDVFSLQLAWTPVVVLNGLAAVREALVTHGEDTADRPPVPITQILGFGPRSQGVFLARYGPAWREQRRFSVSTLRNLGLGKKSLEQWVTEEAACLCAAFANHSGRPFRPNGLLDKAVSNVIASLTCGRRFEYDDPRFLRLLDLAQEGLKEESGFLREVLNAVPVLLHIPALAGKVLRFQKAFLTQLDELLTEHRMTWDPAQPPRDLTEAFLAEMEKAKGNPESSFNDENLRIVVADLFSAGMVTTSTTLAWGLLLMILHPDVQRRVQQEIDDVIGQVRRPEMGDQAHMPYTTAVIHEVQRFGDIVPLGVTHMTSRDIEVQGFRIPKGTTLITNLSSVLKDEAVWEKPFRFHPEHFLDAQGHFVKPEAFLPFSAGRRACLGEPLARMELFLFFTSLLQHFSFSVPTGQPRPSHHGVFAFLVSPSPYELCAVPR
T1 sequence (P48039 whole entry): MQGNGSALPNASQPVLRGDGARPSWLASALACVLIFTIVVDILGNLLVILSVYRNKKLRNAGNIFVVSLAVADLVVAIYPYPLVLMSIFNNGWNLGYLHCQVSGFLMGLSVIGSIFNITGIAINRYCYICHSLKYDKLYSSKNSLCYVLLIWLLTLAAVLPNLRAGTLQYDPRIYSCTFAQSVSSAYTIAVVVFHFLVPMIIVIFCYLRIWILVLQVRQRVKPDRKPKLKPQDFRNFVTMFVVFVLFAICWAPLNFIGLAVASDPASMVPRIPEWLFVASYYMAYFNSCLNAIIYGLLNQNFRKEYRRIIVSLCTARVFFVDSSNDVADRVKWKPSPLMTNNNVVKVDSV
T2 sequence (P41595 whole entry): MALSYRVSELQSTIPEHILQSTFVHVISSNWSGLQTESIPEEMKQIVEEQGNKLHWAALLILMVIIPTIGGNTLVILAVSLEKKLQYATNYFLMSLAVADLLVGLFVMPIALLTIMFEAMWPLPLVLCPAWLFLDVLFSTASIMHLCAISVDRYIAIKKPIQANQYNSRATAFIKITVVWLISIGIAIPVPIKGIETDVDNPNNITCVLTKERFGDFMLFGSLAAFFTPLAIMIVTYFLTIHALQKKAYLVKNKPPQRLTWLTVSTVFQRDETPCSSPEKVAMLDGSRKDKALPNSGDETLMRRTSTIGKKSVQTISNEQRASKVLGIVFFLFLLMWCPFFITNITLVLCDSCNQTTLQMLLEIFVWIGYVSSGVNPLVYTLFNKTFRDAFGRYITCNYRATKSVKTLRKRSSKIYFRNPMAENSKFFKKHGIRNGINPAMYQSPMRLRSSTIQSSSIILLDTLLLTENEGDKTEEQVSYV

COc1cc(C2OC(=O)Nc3c2ccc2ccccc32)cc(OC)c1OC (stereo not drawn) [compound II-4]
renal cystic disease / cystic disease progression (total kidney-to-body weight ratio) (Pkd1 V/V mouse): functional reduction in cystic disease progression; also recorded: attenuated | off-target interaction, MT-1 (inhibition >50% considered positive) [1]: possible binding targets | off-target interaction, 5-HT2B (inhibition >50% considered positive) [2]: possible binding targets | VLA-4 protein levels (VLA-4): does not affect VLA-4 protein | CYP-450 inhibition, CYP2D6 (CYP2D6): lack of significant inhibition; also recorded: lacks significant inhibition | actin remodeling (intracellular phalloidin, F-actin) (UM tumor cells): no difference in actin remodeling
